Reference: patent publication US6960429B2, “Inhibition of viral gene activities” (priority 1997, dated 2005)
Where two headings read alike, the source gives them in different places.

Assays:
GAL4(1-94)&54-89 = target: T1, GAL4(1-94)&54-89 (Epstein-Barr virus, UniProt P03211); assay: Gel shift assay: inhibition of DNA-linking by GAL4(1-94)&54-89; assay type: biochemical; settings: 2.5-fold molar excess of competitor; DNA with five GAL4-binding sites (FIG. 2A)
T1 construct: made in house
Procedure: Two DNAs used as probes in this study were generated by endonuclease digestion of cloned DNAs. That with two EBNA1-binding sites is the 131 bp, SalI to PstI fragment derived from p880 (30); and that with five GAL4-binding sites is the 109 bp, HinDIII to XbaI fragment derived from G5BCAT (31). DNA fragments were purified from agarose gels. They were quantified by making serial dilutions in the presence of ethidium bromide (0.5 μg/mL) and comparing their intensities, when exposed to ultraviolet light, to that of similar dilutions of a standard DNA. This method distinguishes less than two-fold differences in DNA concentrations. These DNAs were labeled with the Klenow fragment of DNA Polymerase 1 in the presence of dATP, dGTP, dTTP, and ^32P α-dCTP (Amersham), and precipitated three times to remove unincorporated label (32). […]
Gel shift assays were done as previously described (28). […] The percentage of DNA linked is determined by dividing the amount of linked DNA by the total amount of DNA in the lane.
The ability of GAL4(1-94)&54-89 (FIG. 1) to link DNAs containing five GAL4-binding sites was tested in the absence of any competitor and in the presence of a 2.5-fold molar excess of three derivatives of EBNA1 (FIG. 1). […] For both FIGS. 2A and B the reactions were manipulated and analyzed to determine the percentage of maximum DNA linked as in FIG. 3. […]

[1] = target: bEBNA1 (derivative of EBNA1); assay type: biochemical, Epstein-Barr virus; settings: for Ki: 6.5 nM dimers of bEBNA1, 20 fmols DNA with two EBNA1-binding sites, Ki = concentration of competitor which inhibits linking to 50%, read-out: Ki against bEBNA1; for Ki for linking by bEBNA1 relative to linking by NΔ360: DNA with two EBNA1-binding sites; for Effectiveness of competition with linking by bEBNA1 relative to linking by NΔ360: DNA with two binding sites
Procedure: Two DNAs used as probes in this study were generated by endonuclease digestion of cloned DNAs. That with two EBNA1-binding sites is the 131 bp, SalI to PstI fragment derived from p880 (30); and that with five GAL4-binding sites is the 109 bp, HinDIII to XbaI fragment derived from G5BCAT (31). DNA fragments were purified from agarose gels. They were quantified by making serial dilutions in the presence of ethidium bromide (0.5 μg/mL) and comparing their intensities, when exposed to ultraviolet light, to that of similar dilutions of a standard DNA. This method distinguishes less than two-fold differences in DNA concentrations. These DNAs were labeled with the Klenow fragment of DNA Polymerase 1 in the presence of dATP, dGTP, dTTP, and ^32P α-dCTP (Amersham), and precipitated three times to remove unincorporated label (32).
(§1) The derivatives of EBNA1 (bEBNA1, NΔ360, NΔ389) and the GAL4 derivatives (GAL4(1-94), GAL4(1-94)&54-89, GAL4(1-94)&331-361, GAL4(1-94)&372-391) used in this study were all produced and purified as previously described (28). Briefly, bEBNA1 lacks amino acids 2 through 7 and all but fifteen amino acids of the gly-gly-ala repeats and was expressed in SF21 cells (23). NΔ360 and NΔ389 lack the first 360 and 389 amino acids, respectively, and were expressed in E. coli. GAL4(1-94) contains amino acids 1 to 94 of the yeast transactivator GAL4 plus eight carboxy-terminal amino acids coded by the poly-cloning region. The fusions designated GAL4(1-94)&#—# contain the indicated residues from EBNA1 cloned in frame into the poly-cloning region. All derivatives and fragments of EBNA1 were derived from the B95-8 viral strain (33, 15).
(§2) A.A. 40-89 and A.A. 331-391 were generated by amplifying the fragment of EBNA1 encoding those amino acids with PCR primers containing SalI and XbaI sites at the 5′ ends. […] The sequence of both clones was verified using an ABI Prism automated sequencer (Applied BioSystems). Expression of the fusion proteins in BL21 bacteria containing a DE3 lysogen and carrying pLysS was done as previously described (28). Purification using Ni^2+-NTA agarose (Qiagen) followed standard protocols (The QIAexpressionist, Qiagen). Following elution of A.A. 40-89 and A.A. 331-391 in 500 and 150 mM imidazole, respectively, the peptides were dialyzed into a buffer containing 50 mM Tris (pH 7.5), 2.5 mM EDTA, and 0.3 M NaCl.
(§3) Gel shift assays were done as previously described (28). All reactions contained 20 mM N-2-hydroxyethylpiperazine-N′-2-ethanesulfonic acid (HEPES; pH 7.6), 2 mM EDTA, 10% glycerol, 0.1% Nonidet P-40, and 0.3 M NaCl. Proteins were mixed in volume of 15 μl. The labeled DNA and 3 μg of poly(dI)•poly(dC) (Pharmacia) in 8 μl were added with mixing. The reactions were then incubated 30-45 minutes at room temperature. Reactions were separated by electrophoresis at 15-25 mA through a 4% polyacrylamide gel in 0.5×TBE (45 mM Tris-borate and 1 mM EDTA). Gels were dried on 3MM chromatography paper (Whatman) at 80° C. for 1 hour and then exposed to phosphorimager screens. The percentage of DNA linked is determined by dividing the amount of linked DNA by the total amount of DNA in the lane.

[2] = tested on: DNA with two EBNA1-binding sites; assay: Gel shift assay: binding of the peptides to DNA in the absence of NΔ360; settings: for Concentration reducing linking to 50% as percentage of concentration required to bind 50% of the DNA: 6.5 nM dimers of NΔ360, DNA binding in absence of NΔ360; for Difference between Ki and concentration which bound 50% of the DNA: linking by NΔ360 vs DNA binding by peptide alone
Source text: (§4) Two DNAs used as probes in this study were generated by endonuclease digestion of cloned DNAs. That with two EBNA1-binding sites is the 131 bp, SalI to PstI fragment derived from p880 (30); and that with five GAL4-binding sites is the 109 bp, HinDIII to XbaI fragment derived from G5BCAT (31). DNA fragments were purified from agarose gels. […] This method distinguishes less than two-fold differences in DNA concentrations. These DNAs were labeled with the Klenow fragment of DNA Polymerase 1 in the presence of dATP, dGTP, dTTP, and ^32P α-dCTP (Amersham), and precipitated three times to remove unincorporated label (32).
as §3
(§5) FIG. 3A: 20 fmols of a DNA with two EBNA1-binding sites were combined with the indicated concentrations of dimers of NΔ360 and A.A. 331-391 prior to separation by electrophoresis through a 4% polyacrylamide gel. […] The positions of linked DNA, unbound DNA, and DNA with one and two sites occupied by NΔ360 (1 and 2, respectively) are indicated. […] The percentage bound is the fraction of the total DNA in the lane which is shifted above the bracket for unbound DNA. […] The standard deviations are from three separate experiments.

[3] = target: T2, NΔ360 (derivative of EBNA1) (Epstein-Barr virus, UniProt P03211); assay type: biochemical; settings: for Ki: 6.5 nM dimers of NΔ360, 20 fmols DNA with two EBNA1-binding sites, Ki = concentration of competitor which inhibits linking to 50%, read-out: Ki against NΔ360
T2 construct: NΔ360 and NΔ389 have a methionine followed by amino acids 361 and 390 to the carboxy-terminus, respectively; added initiator methionine (N); made in house; host or cells: E. coli
Source text: as §4, §1, §2, §3, §5

[4] = DNA with two EBNA1-binding sites, read-out: Concentration for 50% inhibition of linking by NΔ360
[5] = linking by NΔ360, DNA with two binding sites

NΔ360: EBNA1 derivative lacking the first 360 amino acids, expressed in E. coli
Inhibition of linking by GAL4(1-94)&54-89 (GAL4(1-94)&54-89): inhibited linking

A.A. 40-89: EBNA1 amino acids 40-89 fused to an amino-terminal epitope (T7 Tag) and 6 carboxy-terminal histidines, expressed in bacteria
Ki [1]: 7.6 µM
Ki for linking by bEBNA1 relative to linking by NΔ360 [1]: 140 fold
Effectiveness of competition with linking by bEBNA1 relative to linking by NΔ360 [1]: approximately 1%
Concentration reducing linking to 50% as percentage of concentration required to bind 50% of the DNA [2]: 1%
Difference between Ki and concentration which bound 50% of the DNA [2]: 100 fold
Ki [3]: 0.055 µM
IC50 [3, 4]: 0.055 µM

A.A. 331-391: EBNA1 amino acids 331-391 fused to an amino-terminal epitope (T7 Tag) and 6 carboxy-terminal histidines, expressed in bacteria
Ki [1]: 3.3 µM
Ki for linking by bEBNA1 relative to linking by NΔ360 [1]: 110 fold
Effectiveness of competition with linking by bEBNA1 relative to linking by NΔ360 [1]: approximately 1%
Concentration reducing linking to 50% as percentage of concentration required to bind 50% of the DNA [2]: 2%
Difference between Ki and concentration which bound 50% of the DNA [2]: 50 fold
Ki [3]: 0.03 µM
Excess of competitor relative to NΔ360 that halves the percentage of DNA linked ([3]; DNA with two EBNA1-binding sites): 5 fold
IC50 [3, 4]: 0.03 µM
Effectiveness of competition for linking of the ten binding site DNA relative to the two binding site DNA ([3]; linking by NΔ360, data not shown): approximately 0.3%

Poly-Lysine [reference compound]
Ki [1]: 11 µM
Ki for linking by bEBNA1 relative to linking by NΔ360 [1]: 6 fold
Ki [3]: 1.9 µM
IC50 ([3]; DNAs with two EBNA1-binding sites, read-out: Concentration inhibiting linking by NΔ360 to 50%): 1.9 µM
Ki of polyK relative to Ki of A.A. 40-89 [3, 5]: 35 fold
Ki of polyK relative to Ki of A.A. 331-391 [3, 5]: 60 fold

GAL4(1-94): Amino acids 1 to 94 of the yeast transactivator GAL4 plus eight carboxy-terminal amino acids coded by the poly-cloning region [reference compound]
Inhibition of linking by NΔ360 ([3]; 4.5-fold molar excess of GAL4-derivative, DNA with two EBNA1-binding sites (FIG. 2B)): did not inhibit linking
